Laboratory results from ChEMBL document CHEMBL5465560, “Selectivity Literature for EUbOPEN Chemogenomic Library” (2024).

Columns and labels:
[1] = biological target: Serine/threonine-protein kinase pim-3 (Homo sapiens) (UniProt Q86V86); experiment: Selectivity interaction (Kinase panel (Z-LYTE Assay)) EUB0001632a PIM3; settings: at 10 µM
[2] = biological target: Serine/threonine-protein kinase SIK1 (Homo sapiens) (UniProt P57059); experiment: Selectivity interaction (KinomeScan (DiscoverX)) EUB0000666a SIK1; settings: at 10 µM
Serine/threonine-protein kinase SIK1 (Homo sapiens), sequence (P57059 whole entry): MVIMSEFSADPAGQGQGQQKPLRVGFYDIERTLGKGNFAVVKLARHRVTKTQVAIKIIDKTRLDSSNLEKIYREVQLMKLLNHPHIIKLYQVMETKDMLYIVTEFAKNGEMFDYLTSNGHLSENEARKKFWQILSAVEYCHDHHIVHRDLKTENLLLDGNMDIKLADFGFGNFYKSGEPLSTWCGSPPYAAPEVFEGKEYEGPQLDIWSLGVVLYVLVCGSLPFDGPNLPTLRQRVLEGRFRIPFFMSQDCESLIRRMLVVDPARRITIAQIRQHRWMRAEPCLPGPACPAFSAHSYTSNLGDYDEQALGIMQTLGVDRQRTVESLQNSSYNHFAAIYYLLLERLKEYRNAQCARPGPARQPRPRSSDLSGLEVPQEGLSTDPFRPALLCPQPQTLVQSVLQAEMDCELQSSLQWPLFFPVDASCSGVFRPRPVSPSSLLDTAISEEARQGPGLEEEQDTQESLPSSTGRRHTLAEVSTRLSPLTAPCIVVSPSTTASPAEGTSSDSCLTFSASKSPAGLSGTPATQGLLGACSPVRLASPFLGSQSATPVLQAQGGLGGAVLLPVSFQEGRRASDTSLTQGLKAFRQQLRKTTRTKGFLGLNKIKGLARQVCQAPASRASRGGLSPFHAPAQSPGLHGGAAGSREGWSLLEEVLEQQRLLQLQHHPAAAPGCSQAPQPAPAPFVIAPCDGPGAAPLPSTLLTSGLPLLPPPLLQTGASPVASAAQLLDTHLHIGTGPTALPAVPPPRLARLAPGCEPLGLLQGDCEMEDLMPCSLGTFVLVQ

[3] = biological target: MAP kinase-interacting serine/threonine-protein kinase 1 (Homo sapiens) (UniProt Q9BUB5); experiment: Selectivity interaction (KinomeScan (DiscoverX)) EUB0000607a MKNK1; settings: at 10 µM
MAP kinase-interacting serine/threonine-protein kinase 1 (Homo sapiens), sequence (Q9BUB5 whole entry, looked up): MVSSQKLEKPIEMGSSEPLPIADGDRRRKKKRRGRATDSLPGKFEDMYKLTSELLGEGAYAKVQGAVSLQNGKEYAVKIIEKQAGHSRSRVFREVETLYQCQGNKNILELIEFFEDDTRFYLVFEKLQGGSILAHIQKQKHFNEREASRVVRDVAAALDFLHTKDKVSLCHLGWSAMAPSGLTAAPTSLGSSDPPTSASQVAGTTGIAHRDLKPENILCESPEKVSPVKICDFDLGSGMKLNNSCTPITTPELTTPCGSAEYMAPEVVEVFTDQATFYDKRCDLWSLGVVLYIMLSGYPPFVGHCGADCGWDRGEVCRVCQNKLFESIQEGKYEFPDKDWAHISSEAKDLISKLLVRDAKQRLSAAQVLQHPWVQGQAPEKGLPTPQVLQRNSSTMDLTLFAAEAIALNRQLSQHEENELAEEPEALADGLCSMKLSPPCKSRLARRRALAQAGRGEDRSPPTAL

[4] = biological target: Serine/threonine-protein kinase 10 (Homo sapiens) (UniProt O94804); experiment: Selectivity interaction (ActivX KiNativ screen (kinase selectivity in THP-1 cell lysates)) EUB0000639a STK10; assay type: subcellular; settings: lysate, at 0.04 µM
Serine/threonine-protein kinase 10 (Homo sapiens), sequence (O94804 whole entry, looked up): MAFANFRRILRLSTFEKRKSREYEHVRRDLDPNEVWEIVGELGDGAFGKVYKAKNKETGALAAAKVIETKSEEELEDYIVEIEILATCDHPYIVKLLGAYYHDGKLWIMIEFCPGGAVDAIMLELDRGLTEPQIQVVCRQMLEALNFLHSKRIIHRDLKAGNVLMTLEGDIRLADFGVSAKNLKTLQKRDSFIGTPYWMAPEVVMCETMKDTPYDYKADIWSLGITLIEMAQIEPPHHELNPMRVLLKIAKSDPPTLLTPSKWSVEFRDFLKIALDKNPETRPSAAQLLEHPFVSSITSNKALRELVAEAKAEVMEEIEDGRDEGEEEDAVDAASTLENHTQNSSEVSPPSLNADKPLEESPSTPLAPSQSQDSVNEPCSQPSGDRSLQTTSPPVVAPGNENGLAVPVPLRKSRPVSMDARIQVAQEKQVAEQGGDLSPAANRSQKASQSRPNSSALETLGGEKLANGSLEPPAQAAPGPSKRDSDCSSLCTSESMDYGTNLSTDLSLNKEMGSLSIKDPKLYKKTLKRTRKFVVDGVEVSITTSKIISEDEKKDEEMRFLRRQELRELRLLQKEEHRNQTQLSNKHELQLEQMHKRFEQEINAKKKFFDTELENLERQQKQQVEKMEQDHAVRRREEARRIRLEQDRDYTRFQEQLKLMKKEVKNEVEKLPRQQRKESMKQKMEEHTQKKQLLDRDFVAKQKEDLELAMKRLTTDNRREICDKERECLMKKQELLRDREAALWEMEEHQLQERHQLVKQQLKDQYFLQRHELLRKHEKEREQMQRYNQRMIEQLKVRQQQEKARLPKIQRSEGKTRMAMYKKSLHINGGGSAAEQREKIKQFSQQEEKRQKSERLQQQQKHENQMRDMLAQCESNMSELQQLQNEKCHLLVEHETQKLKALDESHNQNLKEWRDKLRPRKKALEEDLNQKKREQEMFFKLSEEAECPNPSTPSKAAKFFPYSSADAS

[5] = biological target: T1, Serine/threonine-protein kinase Nek9 (Homo sapiens) (UniProt Q8TD19); experiment: Selectivity interaction (KinomeScan (DiscoverX)) EUB0000695a NEK9; settings: at 100 nM
T1 sequence (whole entry): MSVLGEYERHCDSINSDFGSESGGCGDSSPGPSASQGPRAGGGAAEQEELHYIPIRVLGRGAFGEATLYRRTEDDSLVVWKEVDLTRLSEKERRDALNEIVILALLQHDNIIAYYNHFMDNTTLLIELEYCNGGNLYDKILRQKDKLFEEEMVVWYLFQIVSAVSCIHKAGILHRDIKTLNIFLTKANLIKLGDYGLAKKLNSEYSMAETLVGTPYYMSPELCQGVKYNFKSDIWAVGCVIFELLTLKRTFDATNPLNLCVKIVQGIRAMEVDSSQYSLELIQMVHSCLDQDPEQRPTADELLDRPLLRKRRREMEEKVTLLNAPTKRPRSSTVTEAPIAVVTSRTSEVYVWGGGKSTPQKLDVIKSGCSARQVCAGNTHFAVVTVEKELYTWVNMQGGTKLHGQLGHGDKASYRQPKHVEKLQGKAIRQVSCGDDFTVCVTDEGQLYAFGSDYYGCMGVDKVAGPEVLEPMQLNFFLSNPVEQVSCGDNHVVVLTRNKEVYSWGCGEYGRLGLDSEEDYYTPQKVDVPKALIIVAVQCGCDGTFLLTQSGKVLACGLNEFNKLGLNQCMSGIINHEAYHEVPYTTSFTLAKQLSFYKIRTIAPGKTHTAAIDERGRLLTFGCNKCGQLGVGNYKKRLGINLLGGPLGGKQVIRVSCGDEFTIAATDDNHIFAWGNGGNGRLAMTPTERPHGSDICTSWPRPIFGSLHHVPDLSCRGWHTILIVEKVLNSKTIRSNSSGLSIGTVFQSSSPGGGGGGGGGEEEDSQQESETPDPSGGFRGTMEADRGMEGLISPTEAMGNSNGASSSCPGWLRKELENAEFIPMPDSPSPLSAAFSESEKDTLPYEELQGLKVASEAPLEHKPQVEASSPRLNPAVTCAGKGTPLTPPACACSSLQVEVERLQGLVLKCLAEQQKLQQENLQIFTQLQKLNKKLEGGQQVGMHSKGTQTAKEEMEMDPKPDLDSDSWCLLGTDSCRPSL

[6] = biological target: Hepatocyte growth factor receptor (Homo sapiens, UniProt P08581); settings: at 10 µM
[7] = biological target: Serine/threonine-protein kinase pim-2 (Homo sapiens, UniProt Q9P1W9); experiment: Selectivity interaction (KinomeScan (DiscoverX)) EUB0001049a PIM2; settings: at 1 µM
Serine/threonine-protein kinase pim-2, sequence (Q9P1W9 whole entry, looked up): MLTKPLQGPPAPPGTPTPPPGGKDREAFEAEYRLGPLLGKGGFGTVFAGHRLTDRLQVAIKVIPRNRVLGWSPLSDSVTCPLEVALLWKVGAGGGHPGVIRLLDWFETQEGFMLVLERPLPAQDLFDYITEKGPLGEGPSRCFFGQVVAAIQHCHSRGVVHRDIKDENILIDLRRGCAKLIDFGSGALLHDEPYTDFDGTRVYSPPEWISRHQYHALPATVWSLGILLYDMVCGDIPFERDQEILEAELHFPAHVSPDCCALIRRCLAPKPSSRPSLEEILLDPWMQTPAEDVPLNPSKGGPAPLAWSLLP

[8] = biological target: Cyclin-dependent kinase 2 (Homo sapiens, UniProt P24941); experiment: Selectivity interaction (Kinase panel (DSF assay)) EUB0001558a CDK2
[9] = biological target: Adenosine receptor A2a (Homo sapiens, UniProt P29274); experiment: Selectivity interaction (Panel of kinases, GPCRs, ion channels and transporters (enzymatic assay)) EUB0000223bCl ADORA2A
Adenosine receptor A2a, sequence (P29274 whole entry): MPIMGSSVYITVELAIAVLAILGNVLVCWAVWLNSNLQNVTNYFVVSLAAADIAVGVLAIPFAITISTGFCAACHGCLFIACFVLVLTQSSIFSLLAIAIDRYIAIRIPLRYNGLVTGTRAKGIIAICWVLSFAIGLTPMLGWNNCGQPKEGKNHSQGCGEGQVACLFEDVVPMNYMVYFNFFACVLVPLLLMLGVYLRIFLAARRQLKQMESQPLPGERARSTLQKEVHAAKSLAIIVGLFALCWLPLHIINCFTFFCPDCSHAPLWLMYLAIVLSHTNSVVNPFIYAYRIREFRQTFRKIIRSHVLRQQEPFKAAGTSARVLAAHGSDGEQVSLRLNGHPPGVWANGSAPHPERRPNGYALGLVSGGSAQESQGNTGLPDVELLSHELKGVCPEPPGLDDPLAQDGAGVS

[10] = biological target: Histone-lysine N-methyltransferase PRDM9 (Homo sapiens) (UniProt Q9NQV7); settings: at 10 µM
Histone-lysine N-methyltransferase PRDM9 (Homo sapiens), sequence (Q9NQV7 whole entry): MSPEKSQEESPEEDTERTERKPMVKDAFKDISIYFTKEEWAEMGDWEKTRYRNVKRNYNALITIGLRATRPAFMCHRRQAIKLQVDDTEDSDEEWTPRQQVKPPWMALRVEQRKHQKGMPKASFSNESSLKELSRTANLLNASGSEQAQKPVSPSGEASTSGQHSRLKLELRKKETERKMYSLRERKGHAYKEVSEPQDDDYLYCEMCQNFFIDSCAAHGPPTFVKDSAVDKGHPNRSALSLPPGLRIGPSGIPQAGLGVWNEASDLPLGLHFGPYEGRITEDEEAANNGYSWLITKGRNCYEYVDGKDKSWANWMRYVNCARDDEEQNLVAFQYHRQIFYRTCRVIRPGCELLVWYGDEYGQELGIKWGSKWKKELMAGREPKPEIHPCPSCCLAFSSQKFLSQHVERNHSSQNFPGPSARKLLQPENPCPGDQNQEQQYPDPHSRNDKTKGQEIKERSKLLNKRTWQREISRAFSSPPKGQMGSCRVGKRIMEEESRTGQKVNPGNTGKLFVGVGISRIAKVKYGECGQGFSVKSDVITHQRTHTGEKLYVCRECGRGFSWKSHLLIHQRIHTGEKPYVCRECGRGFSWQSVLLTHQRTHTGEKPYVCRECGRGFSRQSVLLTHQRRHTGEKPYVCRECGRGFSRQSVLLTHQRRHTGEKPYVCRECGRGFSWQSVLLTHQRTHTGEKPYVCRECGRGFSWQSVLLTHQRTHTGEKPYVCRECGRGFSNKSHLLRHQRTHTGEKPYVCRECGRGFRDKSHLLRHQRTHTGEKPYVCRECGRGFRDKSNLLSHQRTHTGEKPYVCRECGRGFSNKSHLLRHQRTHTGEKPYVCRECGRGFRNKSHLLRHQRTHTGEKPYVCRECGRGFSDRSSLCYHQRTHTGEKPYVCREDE

[11] = biological target: Tyrosine-protein kinase CSK (Homo sapiens) (UniProt P41240); experiment: Selectivity interaction (KinomeScan (DiscoverX)) EUB0000229b CSK; settings: at 10 µM
Tyrosine-protein kinase CSK (Homo sapiens), sequence (P41240 2-450 limits assumed): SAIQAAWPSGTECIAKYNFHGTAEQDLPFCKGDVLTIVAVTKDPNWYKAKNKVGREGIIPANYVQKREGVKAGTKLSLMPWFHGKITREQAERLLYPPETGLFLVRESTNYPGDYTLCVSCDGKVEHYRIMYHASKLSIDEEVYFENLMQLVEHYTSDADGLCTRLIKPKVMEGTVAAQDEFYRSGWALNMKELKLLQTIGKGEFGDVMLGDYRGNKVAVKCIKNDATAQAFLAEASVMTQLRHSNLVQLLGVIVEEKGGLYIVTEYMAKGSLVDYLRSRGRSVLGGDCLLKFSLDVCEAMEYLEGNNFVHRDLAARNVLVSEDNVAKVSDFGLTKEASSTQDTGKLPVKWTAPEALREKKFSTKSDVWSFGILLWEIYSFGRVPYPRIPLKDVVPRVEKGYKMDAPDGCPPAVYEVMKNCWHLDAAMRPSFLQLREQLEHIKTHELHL

[12] = biological target: T2, Myosin light chain kinase family member 4 (Homo sapiens) (UniProt Q86YV6); experiment: Selectivity interaction (KinomeScan (DiscoverX)) EUB0000092b MYLK4; settings: at 10 µM
T2 sequence (whole entry): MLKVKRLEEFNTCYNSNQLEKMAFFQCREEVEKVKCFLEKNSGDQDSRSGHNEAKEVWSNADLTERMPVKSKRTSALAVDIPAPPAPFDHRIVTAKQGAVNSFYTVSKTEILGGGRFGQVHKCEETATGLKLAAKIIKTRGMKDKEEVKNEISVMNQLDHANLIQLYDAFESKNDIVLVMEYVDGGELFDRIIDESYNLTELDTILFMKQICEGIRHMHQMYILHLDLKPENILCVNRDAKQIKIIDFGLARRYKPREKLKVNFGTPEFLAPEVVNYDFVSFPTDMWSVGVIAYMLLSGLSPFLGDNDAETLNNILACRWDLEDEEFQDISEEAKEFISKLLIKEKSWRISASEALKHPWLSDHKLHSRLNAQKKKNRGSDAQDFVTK

[13] = biological target: T3, Dual specificity tyrosine-phosphorylation-regulated kinase 2 (Homo sapiens) (UniProt Q92630); settings: at 10 µM
T3 sequence (whole entry): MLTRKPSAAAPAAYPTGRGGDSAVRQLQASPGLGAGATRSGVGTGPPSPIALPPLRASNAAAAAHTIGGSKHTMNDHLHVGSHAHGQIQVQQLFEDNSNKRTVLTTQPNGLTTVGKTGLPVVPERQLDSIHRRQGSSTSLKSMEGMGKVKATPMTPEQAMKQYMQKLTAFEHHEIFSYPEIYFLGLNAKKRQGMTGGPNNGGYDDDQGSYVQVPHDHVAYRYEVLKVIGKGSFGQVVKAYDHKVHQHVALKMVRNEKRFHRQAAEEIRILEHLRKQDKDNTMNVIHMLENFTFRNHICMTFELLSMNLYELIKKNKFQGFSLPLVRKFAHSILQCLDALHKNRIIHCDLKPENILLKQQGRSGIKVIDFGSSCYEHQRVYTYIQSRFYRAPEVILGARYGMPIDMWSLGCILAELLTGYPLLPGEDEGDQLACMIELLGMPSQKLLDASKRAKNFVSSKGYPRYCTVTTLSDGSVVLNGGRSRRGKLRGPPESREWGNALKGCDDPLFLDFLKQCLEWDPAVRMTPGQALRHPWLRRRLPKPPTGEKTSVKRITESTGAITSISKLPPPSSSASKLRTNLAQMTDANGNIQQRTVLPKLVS

Compound Cn1cc(-n2cnc3c(NCc4nc5cc(Cl)c(Cl)cc5[nH]4)nc(N4CCOCC4)nc32)cn1 has a % of control [1] of -7.71%.

Work on O=C(NOC[C@H](O)CO)c1ccc(F)c(F)c1Nc1ccc(I)cc1F yielded a % of control [2] of 100%.

CNC(=O)Nc1ccc(-c2nc(N3CC4CCC(C3)O4)c3cnn(C4CCC5(CC4)OCCO5)c3n2)cc1 was tested, and the % of control [3] was 100%.

CC[C@@H]1[C@H](F)C(=O)N[C@@H]1COc1nccc2cc(C(N)=O)c(OC)cc12 [ZIMLOVISERTIB] showed a % of inhibition [4] of -97%.

For Cc1cc(F)c(C(=O)Nc2cccc(-c3nncn3C(C)C)n2)cc1-n1cnc(C2CC2)c1, the % of control [5] was 100%.

Work on COCC(=O)NC/C=C/c1ccc2ncnc(Nc3ccc(Oc4ccc(C)nc4)c(C)c3)c2c1 [CP-724714] yielded a % of control [6] of 74%.

For COc1cc(Nc2nc(C)cc(-c3cnn4nc(OC)ccc34)n2)cc(C(F)(F)F)c1, the % of control [7] was 95%.

With CC(C)(O)[C@H](F)CN1Cc2cc(NC(=O)c3cnn4cccnc34)c(N3CCOCC3)cc2C1=O the dTM [8] was 0.1 K.

For COc1cc(C(=O)N2CC[C@@H](O)[C@@H](N)C2)cc2nc(-c3cc4ccccc4n3CC3CC3)n(C)c12, the pXC50 [9] was < 4.5 M.

CNCCN1CCC(c2cc(CN(C)C(=O)c3cccc(Oc4ccccc4)c3)ccn2)CC1 was tested, and the % activity [10] was > 90%.

Compound COc1cc(N(C)c2ccnc3ccc(C(F)(F)F)cc23)cc(OC)c1OC has a % binding [11] of 91%.

In the case of CCC(=O)N1CCN(c2ccc(-n3c(=O)ccc4cnc5ccc(-c6cnc7ccccc7c6)cc5c43)cc2C(F)(F)F)CC1, the % of control [12] is reported as 83%.

Cc1cc([C@@H](C)Nc2ccccc2C(=O)O)c2nc(N3CCOCC3)cc(=O)n2c1 [AZD-6482] was tested, and the % of control [13] was 89%.
